{"source": "patent US20070172957A1", "about": "“Methods of identifying anti-inflammatory macrolides” (TAISHO PHARMACEUTICAL CO., LTD., priority 2004, published 2007)", "tested_on": "genes predictive for the anti-inflammatory macrolide effect", "test": "Genes statistically predictive of Clari response: differentially expressed with Clari but not the inactive macrolides MAA or Josa (Appendix E)", "type": "cell-based", "source_text": "In the case of the above-mentioned (i) related to arachidonic acid biosynthesis, specifically, methods of the embodiment involve assaying whether a test macrolide alters biosynthesis of arachidonic acid, alters the expression or activities of enzymes involved in the biosynthesis or activation of arachidonic acid (e.g., arachidonic acid CoA synthetase, delta-6 desaturase, fatty acid elongase, and delta-5 desaturase, AA-related genes in Tables 2 and 3), or alters the expression of genes identified as predictive for the anti-inflammatory macrolide effect (Appendix E). Assays in which arachidonic acid or gene expression or enzymatic activity is detected can be carried out after contacting a cell with a test macrolide. Any cell line that secretes prostaglandin or produces arachidonic acid can be used. Epithelial and macrophages lines (e.g., A549 or THP-1) are suitable for this purpose; other cell lines can be identified by carrying out assays such as those described in the specific Examples, below. Alternatively, screening assays can be carried out after adding a test macrolide to an in vitro cell system (e.g., a cellular extract or liver microsome preparation) or an in vitro enzyme assay system.", "data": [{"smiles": "CC[C@H]1OC(=O)[C@H](C)[C@@H](O[C@H]2C[C@@](C)(OC)[C@@H](O)[C@H](C)O2)[C@H](C)[C@@H](O[C@@H]2O[C@H](C)C[C@H](N(C)C)[C@H]2O)[C@](C)(OC)C[C@@H](C)C(=O)[C@H](C)[C@@H](O)[C@]1(C)O", "note": "[clarithromycin]", "values": [{"measurement": "group mean, gene SERPING1", "setting": "SpotID 46579, MAA and Josa vs. Clari", "value": 0.86}, {"measurement": "group mean, gene C12orf8", "setting": "SpotID 46586, MAA and Josa vs. Clari", "value": 1.22}, {"measurement": "mean group, FLJ20699", "setting": "SpotID 46633, pooled group mean", "value": 0.81}, {"measurement": "mean group, ARHGAP1", "setting": "SpotID 46648, pooled group mean", "value": 0.96}, {"measurement": "group mean, gene KIAA1172", "setting": "SpotID 46679, MAA and Josa vs. Clari", "value": 0.91}, {"measurement": "mean group, KIAA1172", "setting": "SpotID 46679, pooled group mean", "value": 0.92}, {"measurement": "group mean, gene MKNK2", "setting": "SpotID 46825, MAA and Josa vs. Clari", "value": 1.15}, {"measurement": "mean group, MKNK2", "setting": "SpotID 46825, pooled group mean", "value": 1.12}, {"measurement": "group mean, gene PRKAR1A", "setting": "SpotID 46838, MAA and Josa vs. Clari", "value": 0.92}, {"measurement": "group mean, gene ARHGDIA", "setting": "SpotID 46843, MAA and Josa vs. Clari", "value": 0.91}, {"measurement": "mean group, ARHGDIA", "setting": "SpotID 46843, pooled group mean", "value": 0.93}, {"measurement": "group mean, gene HEXA", "setting": "SpotID 46882, MAA and Josa vs. Clari", "value": 1.14}, {"measurement": "group mean, gene CDIPT", "setting": "SpotID 46896, MAA and Josa vs. Clari", "value": 1.04}, {"measurement": "mean group, CDIPT", "setting": "SpotID 46896, pooled group mean", "value": 1.01}, {"measurement": "mean group, PACE", "setting": "SpotID 46923, pooled group mean", "value": 1.09}, {"measurement": "group mean, gene METAP2", "setting": "SpotID 46935, MAA and Josa vs. Clari", "value": 0.88}, {"measurement": "mean group, METAP2", "setting": "SpotID 46935, pooled group mean", "value": 0.89}, {"measurement": "group mean, gene HSPBP1", "setting": "SpotID 46979, MAA and Josa vs. Clari", "value": 0.87}, {"measurement": "mean group, EREG", "setting": "SpotID 46988, pooled group mean", "value": 0.85}, {"measurement": "group mean, gene TFPI2", "setting": "SpotID 46991, MAA and Josa vs. Clari", "value": 0.57}, {"measurement": "group mean, gene C2orf3", "setting": "SpotID 47034, MAA and Josa vs. Clari", "value": 0.87}, {"measurement": "mean group, C2orf3", "setting": "SpotID 47034, pooled group mean", "value": 0.90}, {"measurement": "group mean, gene NFRKB", "setting": "SpotID 47056, MAA and Josa vs. Clari", "value": 0.82}, {"measurement": "group mean, gene GOLGB1", "setting": "SpotID 47111, MAA and Josa vs. Clari", "value": 1.17}, {"measurement": "group mean, gene MCM2", "setting": "SpotID 47123, MAA and Josa vs. Clari", "value": 0.78}, {"measurement": "group mean, gene KIAA0251", "setting": "SpotID 47131, MAA and Josa vs. Clari", "value": 1.07}, {"measurement": "group mean, gene ARHGAP1", "setting": "SpotID 47192, MAA and Josa vs. Clari", "value": 0.94}, {"measurement": "group mean, gene ITGB5", "setting": "SpotID 47212, MAA and Josa vs. Clari", "value": 1.12}, {"measurement": "mean group, NUBP1", "setting": "SpotID 47241, pooled group mean", "value": 0.95}, {"measurement": "group mean, gene AKR1A1", "setting": "SpotID 47249, MAA and Josa vs. Clari", "value": 1.08}, {"measurement": "group mean, gene HKE4", "setting": "SpotID 47251, MAA and Josa vs. Clari", "value": 1.13}, {"measurement": "mean group, EPOR", "setting": "SpotID 47314, pooled group mean", "value": 1.14}, {"measurement": "group mean, gene ADAM11", "setting": "SpotID 47352, MAA and Josa vs. Clari", "value": 1.18}, {"measurement": "mean group, ADAM11", "setting": "SpotID 47352, pooled group mean", "value": 1.10}, {"measurement": "group mean, gene ERF", "setting": "SpotID 47354, MAA and Josa vs. Clari", "value": 1.00}, {"measurement": "mean group, P4HB", "setting": "SpotID 47366, pooled group mean", "value": 1.18}, {"measurement": "group mean, gene MTHFD1", "setting": "SpotID 47406, MAA and Josa vs. Clari", "value": 0.93}, {"measurement": "mean group, CETN2", "setting": "SpotID 47415, pooled group mean", "value": 1.18}, {"measurement": "group mean, gene SNK", "setting": "SpotID 47418, MAA and Josa vs. Clari", "value": 0.77}, {"measurement": "mean group, SNK", "setting": "SpotID 47418, pooled group mean", "value": 0.82}, {"measurement": "mean group, GCS1", "setting": "SpotID 47432, pooled group mean", "value": 1.02}, {"measurement": "group mean, gene DCTN1", "setting": "SpotID 47439, MAA and Josa vs. Clari", "value": 0.93}, {"measurement": "mean group, DCTN1", "setting": "SpotID 47439, pooled group mean", "value": 0.95}, {"measurement": "group mean, gene RANBP1", "setting": "SpotID 47446, MAA and Josa vs. Clari", "value": 0.83}, {"measurement": "mean group, RANBP1", "setting": "SpotID 47446, pooled group mean", "value": 0.89}, {"measurement": "mean group, MSH3", "setting": "SpotID 47504, pooled group mean", "value": 0.99}, {"measurement": "mean group, SERPINA1", "setting": "SpotID 47522, pooled group mean", "value": 0.95}, {"measurement": "group mean, gene PTK2B", "setting": "SpotID 47524, MAA and Josa vs. Clari", "value": 1.08}, {"measurement": "group mean, gene ARHGDIA", "setting": "SpotID 47535, MAA and Josa vs. Clari", "value": 0.91}, {"measurement": "group mean, gene TRAP1", "setting": "SpotID 47622, MAA and Josa vs. Clari", "value": 0.89}, {"measurement": "mean group, TRAP1", "setting": "SpotID 47622, pooled group mean", "value": 0.94}, {"measurement": "group mean, gene HSPA9B", "setting": "SpotID 47661, MAA and Josa vs. Clari", "value": 0.90}, {"measurement": "mean group, NR4A2", "setting": "SpotID 47679, pooled group mean", "value": 1.14}, {"measurement": "group mean, gene HSPA9B", "setting": "SpotID 47694, MAA and Josa vs. Clari", "value": 0.90}, {"measurement": "mean group, HSPA9B", "setting": "SpotID 47694, pooled group mean", "value": 0.95}, {"measurement": "group mean, gene MAD4", "setting": "SpotID 47705, MAA and Josa vs. Clari", "value": 1.42}, {"measurement": "group mean, gene NBS1", "setting": "SpotID 47754, MAA and Josa vs. Clari", "value": 0.89}, {"measurement": "mean group, NBS1", "setting": "SpotID 47754, pooled group mean", "value": 0.97}, {"measurement": "group mean, gene KIAA1922", "setting": "SpotID 47755, MAA and Josa vs. Clari", "value": 0.79}, {"measurement": "group mean, gene POLA", "setting": "SpotID 47776, MAA and Josa vs. Clari", "value": 0.86}, {"measurement": "mean group, POLA", "setting": "SpotID 47776, pooled group mean", "value": 0.89}, {"measurement": "group mean, gene BET3", "setting": "SpotID 47793, MAA and Josa vs. Clari", "value": 1.08}, {"measurement": "group mean, gene GOT1", "setting": "SpotID 47802, MAA and Josa vs. Clari", "value": 0.93}, {"measurement": "mean group, GOT1", "setting": "SpotID 47802, pooled group mean", "value": 0.94}, {"measurement": "group mean, gene ENTPD6", "setting": "SpotID 47811, MAA and Josa vs. Clari", "value": 1.11}, {"measurement": "mean group, ENTPD6", "setting": "SpotID 47811, pooled group mean", "value": 1.06}, {"measurement": "mean group, SSI-1", "setting": "SpotID 47846, pooled group mean", "value": 0.93}, {"measurement": "group mean, gene PRLR", "setting": "SpotID 47850, MAA and Josa vs. Clari", "value": 0.99}, {"measurement": "mean group, PRLR", "setting": "SpotID 47850, pooled group mean", "value": 0.99}, {"measurement": "group mean, gene ERF", "setting": "SpotID 47898, MAA and Josa vs. Clari", "value": 1.01}, {"measurement": "group mean, gene YWHAE", "setting": "SpotID 47911, MAA and Josa vs. Clari", "value": 0.95}, {"measurement": "group mean, gene CCNE2", "setting": "SpotID 47926, MAA and Josa vs. Clari", "value": 0.73}, {"measurement": "group mean, gene P4HA1", "setting": "SpotID 47935, MAA and Josa vs. Clari", "value": 1.27}, {"measurement": "mean group, P4HA1", "setting": "SpotID 47935, pooled group mean", "value": 1.18}, {"measurement": "group mean, gene CTSB", "setting": "SpotID 47937, MAA and Josa vs. Clari", "value": 1.15}, {"measurement": "group mean, gene INPP5E", "setting": "SpotID 47939, MAA and Josa vs. Clari", "value": 0.89}, {"measurement": "group mean, gene SF3B3", "setting": "SpotID 47947, MAA and Josa vs. Clari", "value": 0.93}]}]}
